# Laboratory results as given in patent US20240041902A1, “COMPOSITIONS AND METHODS FOR THE TREATMENT OF UROTHELIAL CANCER” (The State of Israel, Ministry of Agriculture & Rural …, priority 2020, published 2024).
# Read-outs that look alike come from different tables or passages of the source.
# Tests used:
# Type in all cases: cell-based, human
# T24 cells [1] = experiment: Bliss independence drug interaction model on T24 cell viability; settings: for inhibition at 1 µg/mL / inhibition at 2 µg/mL / inhibition at 3 µg/mL / inhibition at 5 µg/mL / inhibition at 7.5 µg/mL / inhibition at 10 µg/mL / inhibition at 12.5 µg/mL: Homo sapiens, T-24
# Protocol: (§1) Cell proliferation assay—XTT assay was carried out as described in [34], on T24 and HTB-9 cells. 1*10^4 cells/well were seeded in 96-wells plates, methanol was used as a vehicle control at the same concentration as the treatments. Mitomycin-C (MMC) was used as positive control. Cell viability was calculated relative to the vehicle control after subtracting blank.
# Analysis of combined drug effects—Drug synergy was determined by the Bliss independence drug interaction model as described in [31], on T24 cells.
# T24 cells [2] = experiment: Cell migration scratch assay; settings: sub-lethal: CBD 10, CBC+THC 8.6+1.4, MMC 4, CBC 10, THC 10 μg/mL; vs control
# Protocol: The scratch area, indicated by the cells that migrated to the scratch at time x, was calculated as the percentage of the scratch area at time x from time 0: […]
# T24 cells [3] = experiment: Cytoskeleton (F-actin) staining, confocal; settings: 24 hours; CBC+THC 8.6+1.4, CBD 10 μg/mL
# Protocol: Cytoskeleton staining—T24 cell were seeded on glass bottom cell culture dishes and fixed with 3.7% formaldehyde solution and permeabilized with 0.1% Triton X-100 at room temperature. Fixed cells were blocked in Phosphate Buffered Saline (PBS) containing 1% bovine serum albumin. For actin and nuclear staining cells were incubated with EasyProbes ActinRed 555 Stain, and Hoechst, respectively. Image acquisition was effected using a Leica SP8 laser scanning microscope (Wetzlar, Germany), equipped with a 405 and 552 nm solid state lasers, HCX PL APO CS 10×/0.40 or HC PL APO CS 60×/1.2 water immersion objectives (Leica, Wetzlar, Germany) and Leica Application Suite X software (Wetzlar, Germany). Hoechst and ActinRed 555 emission signals were detected with PMT and HyD (hybrid) detectors in ranges of 415-490 and 565-660 nm, respectively. At least 3 images were captured from each slide, and experiments were repeated 4 times.
# CB2 receptor (CNR2) = experiment: qRT-PCR of CB2 receptor RNA level in T24 cells; settings: 6 hours; CBC+THC 11.2+1.8 μg/mL or CBD 9.2 μg/mL; relative to control, HPRT1 reference
# Protocol: (§2) Quantitative real-time (qRT) PCR—qRT PCR was carried out as described in [34]. Briefly, T24 cells were treated with cannabis compounds or methanol as a vehicle control for 6 h. Cells were then harvested and total RNA was isolated and reverse-transcribed. The expression of each target gene was normalized to the expression of Hypoxanthine Phosphoribosyltransferase 1 (HPRT1; geneID 3251) mRNA as the 2^−ΔΔCt and is presented as the ratio of the target gene to HPRT1 mRNA, expressed as 2^−ΔCt, where Ct is the threshold cycle and ΔCt=Ct Target gene—Ct HPRT1. Experiments were repeated three times. The primers were: for CB1 (CNR1; geneID 1268) forward 5′-[…]-3′ (SEQ ID NO: 1) and reverse 5′-[…]-3′ (SEQ ID NO: 2); for CB2 (CNR2; geneID 1269) forward 5′-[…]-3′ (SEQ ID NO: 3) and reverse 5′-[…]-3′ (SEQ ID NO: 4).
# T24 cells [4] = experiment: Cell cycle analysis (PI staining, FACS); settings: 24 hours; CBD 15 μg/mL; insignificant increase, control 17.4%
# Protocol: For cell cycle analysis, cells were seeded in 6-wells culture plates at a concentration of 5×10^5 cells per well in McCoy (for T24 cells). The following day, media was replaced with new media containing treatments or methanol control. Cells were then incubated for 24 h at 37° C. in a humidified 5% CO2, 95% air atmosphere. Following 24 h of incubation, media was replaced with new media containing treatment or methanol control. Cells from each well were then harvested and collected separately and centrifuged for 2 min at 900 g. The cell pellet was washed once with 1 mL of PBS and fixed with 70% cold ethanol at 4° C. for at least 1 h. The fixed cells were pelleted out and washed twice with 1 mL of PBS. The cell pellet was then stained by re-suspending in 250 μL of PI solution (50 μg/mL) containing RNase A (100 μg/mL) for 30 min in the dark. Following, 200 μL of PBS were added to each tube and cells were analyzed using FACS.
# Cell proliferation assay—XTT assay was carried on T24 and HTB-9 cells. 1×10^4 cells/well were seeded in 96-well plates. […] MMC was used as a positive control. XTT reagent (2,3,-bis (2-methoxy-4-nitro-5-sulfophenyl)-5-[(phenylamino)-carbonyl]-2H-tetrazolium inner salt) was added for 2 h at 37° C. in a humidified atmosphere of 5% CO2 to 95% air. Absorbance was recorded by a Synergy 111 hybrid reader photometer (BioTek) at 490 nm with 650 nm of reference wavelength. Cell survival (% r, viability) was estimated using the equation: % cell survival=(A490−A650) of treatment/(A490−A650) of solvent control×100. A490 and A650 are the absorbencies of the XTT colorimetric reaction. […] Apoptosis assay and cell cycle analysis—T24 cells were treated with cannabis compounds or with methanol as vehicle control. The cell cycle was determined at 24 hours and apoptosis was determined at 48 hours following treatment. Staining and detection followed the manufacturer's instructions. […] Then 200 μL of PBS was added to each tube and the cells were analyzed using FACS.
# T24 cells [5] = experiment: XTT viability of T24 cells with or without CB1/CB2 inverse agonist, TRPV1/TRPV2 antagonist or TRPA1 blocker; settings: CBD 13.8 μg/mL; inverse agonist 10 μM
# Protocol: For quantification of phytocannabinoids by analytical HPLC, the standards were dissolved in methanol at various concentrations from 0-25 μg/mL.
# as §1
# T24 cells [6] = experiment: Apoptosis assay (Annexin V-FITC and PI, FACS); settings: 48 hours; CBC+THC 17.2+2.8, CBD 15, MMC 8 μg/mL; control 46.2%
# Protocol: Apoptosis assay and cell cycle analysis—T24 cells were treated with cannabis compounds or with methanol as a vehicle control. Cell cycle was determined at 24 h and apoptosis was determined at 48 h post-treatment. Staining and detection followed manufacturer instructions. Briefly, for the apoptosis assay, the MEBCYTO Apoptosis Kit with Annexin V-FITC and PI (MBL, Enco, 4700) was used. Cells were seeded in culture 6-wells plates, at density of 5×10^5 cells per well in McCoy's 5A (for T24 a cells) or in RPMI (for HTB-9 cells). The following day, media was replaced with new media containing treatment or methanol control. Cells were then incubated for 24 or 48 h at 37° C. in a humidified 5% CO2 95% air atmosphere. Following incubation, cells were harvested and collected separately. Tubes were centrifuged for 2 min at 900 g and cell pellets were resuspended and washed twice with 1 mL of PBS. The cells in each sample were resuspended in 85 μL of Annexin binding buffer. Cells were stained using 10 μL of Annexin V-FITC solution and 5 μL of propidium iodide (PI) working solution followed by 15 min incubation in the dark at room temperature. Then 400 μL of Annexin V binding buffer were added to each tube and flow cytometry was performed using a FORTESA flow cytometer (FACS). Cells were considered to be apoptotic if they were Annexin V+/PI− (early apoptotic) or Annexin V+/PI+ (late apoptotic). Live cells were defined as Annexin V−/PI−, and Annexin V−/PI+ as necrotic.
# Cell proliferation assay—XTT assay was carried on T24 and HTB-9 cells. 1×10^4 cells/well were seeded in 96-well plates. […] MMC was used as a positive control. […] Absorbance was recorded by a Synergy 111 hybrid reader photometer (BioTek) at 490 nm with 650 nm of reference wavelength. […] The cell cycle was determined at 24 hours and apoptosis was determined at 48 hours following treatment. […] Then 200 μL of PBS was added to each tube and the cells were analyzed using FACS.
# CB1 receptor (CNR1) = experiment: qRT-PCR of CB1 receptor RNA level in T24 cells; settings: 6 hours; CBC+THC 11.2+1.8 μg/mL or CBD 9.2 μg/mL; relative to control, HPRT1 reference
# Protocol: as §2
smiles,measurement,setting,value
"CCCCCc1cc(O)c2c(c1)OC(C)(CCC=C(C)C)C=C2 (stereo not drawn) [CBC, Cannabichromene]",Calculated (expected) value of cell survival inhibition,T24 cells [1]; CBC 3.5 + THC 0 μg/ml,−0.2617
same,Delta between observed and experimental values calculated according to Bliss model,T24 cells [1]; CBC 3.5 + THC 0 μg/ml,1.26E−10
same,Experimental (observed) value of cell survival inhibition,T24 cells [1]; CBC 3.5 + THC 0 μg/ml,−0.2617
same,Calculated (expected) value of cell survival inhibition,T24 cells [1]; CBC 5.5 + THC 0 μg/ml,0.003989
same,Delta between observed and experimental values calculated according to Bliss model,T24 cells [1]; CBC 5.5 + THC 0 μg/ml,9.96E−11
same,Experimental (observed) value of cell survival inhibition,T24 cells [1]; CBC 5.5 + THC 0 μg/ml,0.003989
same,Calculated (expected) value of cell survival inhibition,T24 cells [1]; CBC 7.5 + THC 0 μg/ml,−0.05563
same,Delta between observed and experimental values calculated according to Bliss model,T24 cells [1]; CBC 7.5 + THC 0 μg/ml,1.06E−10
same,Experimental (observed) value of cell survival inhibition,T24 cells [1]; CBC 7.5 + THC 0 μg/ml,−0.05563
same,Calculated (expected) value of cell survival inhibition,T24 cells [1]; CBC 9.5 + THC 0 μg/ml,−0.061
same,Delta between observed and experimental values calculated according to Bliss model,T24 cells [1]; CBC 9.5 + THC 0 μg/ml,1.06E−10
same,Experimental (observed) value of cell survival inhibition,T24 cells [1]; CBC 9.5 + THC 0 μg/ml,−0.061
same,Calculated (expected) value of cell survival inhibition,T24 cells [1]; CBC 11.5 + THC 0 μg/ml,0.2028
same,Delta between observed and experimental values calculated according to Bliss model,T24 cells [1]; CBC 11.5 + THC 0 μg/ml,7.97E−11
same,Experimental (observed) value of cell survival inhibition,T24 cells [1]; CBC 11.5 + THC 0 μg/ml,0.2028
same,Calculated (expected) value of cell survival inhibition,T24 cells [1]; CBC 13.5 + THC 0 μg/ml,0.5088
same,Delta between observed and experimental values calculated according to Bliss model,T24 cells [1]; CBC 13.5 + THC 0 μg/ml,4.91E−11
same,Experimental (observed) value of cell survival inhibition,T24 cells [1]; CBC 13.5 + THC 0 μg/ml,0.5088
same,cell migration into the scratch,T24 cells [2],reduced cell migration to a lesser extent than treatment with CBC+THC
"C=C(C)[C@@H]1CCC(C)=C[C@H]1c1c(O)cc(CCCCC)cc1O [CBD, Cannabidiol]",F-actin filaments in the cell periphery,T24 cells [3],induced accumulation of F-actin filaments in the cell periphery
same,CB2 receptor RNA level induction,CB2 receptor (CNR2),2.32 fold
same,G2/M-phase cells,T24 cells [4],38.3%
same,effect of CB1 and CB2 inverse agonists on CBD cytotoxicity,T24 cells [5],Only CB2 inverse agonist completely abolished cytotoxicity
same,cell apoptosis,T24 cells [6],81.7%
same,cell migration into the scratch,T24 cells [2],marked and significant reduction in the ability of the cells to migrate into the scratch
same,CB1 receptor RNA level induction,CB1 receptor (CNR1),1.35 fold
"CCCCCc1cc(O)c2c(c1)OC(C)(C)[C@@H]1CCC(C)=C[C@@H]21 [THC, Tetrahydrocannabinol]",Delta between observed and experimental values calculated according to Bliss model,T24 cells [1]; CBC 0 + THC 1 μg/ml,0
same,Delta between observed and experimental values calculated according to Bliss model,T24 cells [1]; CBC 0 + THC 2 μg/ml,0
same,Delta between observed and experimental values calculated according to Bliss model,T24 cells [1]; CBC 0 + THC 3 μg/ml,0
same,Delta between observed and experimental values calculated according to Bliss model,T24 cells [1]; CBC 0 + THC 5 μg/ml,0
same,Delta between observed and experimental values calculated according to Bliss model,T24 cells [1]; CBC 0 + THC 7.5 μg/ml,0
same,Delta between observed and experimental values calculated according to Bliss model,T24 cells [1]; CBC 0 + THC 10 μg/ml,0
same,Delta between observed and experimental values calculated according to Bliss model,T24 cells [1]; CBC 0 + THC 12.5 μg/ml,0
same,inhibition at 1 µg/mL,"T24 cells [1]; CBC 0 + THC 1 μg/ml, read-out: Calculated (expected) value of cell survival inhibition",-1.14%
same,inhibition at 1 µg/mL,"T24 cells [1]; CBC 0 + THC 1 μg/ml, read-out: Experimental (observed) value of cell survival inhibition",-1.14%
same,inhibition at 2 µg/mL,"T24 cells [1]; CBC 0 + THC 2 μg/ml, read-out: Calculated (expected) value of cell survival inhibition",-3.21%
same,inhibition at 2 µg/mL,"T24 cells [1]; CBC 0 + THC 2 μg/ml, read-out: Experimental (observed) value of cell survival inhibition",-3.21%
same,inhibition at 3 µg/mL,"T24 cells [1]; CBC 0 + THC 3 μg/ml, read-out: Calculated (expected) value of cell survival inhibition",-1.37%
same,inhibition at 3 µg/mL,"T24 cells [1]; CBC 0 + THC 3 μg/ml, read-out: Experimental (observed) value of cell survival inhibition",-1.37%
same,inhibition at 5 µg/mL,"T24 cells [1]; CBC 0 + THC 5 μg/ml, read-out: Calculated (expected) value of cell survival inhibition",4.88%
same,inhibition at 5 µg/mL,"T24 cells [1]; CBC 0 + THC 5 μg/ml, read-out: Experimental (observed) value of cell survival inhibition",4.88%
same,inhibition at 7.5 µg/mL,"T24 cells [1]; CBC 0 + THC 7.5 μg/ml, read-out: Calculated (expected) value of cell survival inhibition",-1.83%
same,inhibition at 7.5 µg/mL,"T24 cells [1]; CBC 0 + THC 7.5 μg/ml, read-out: Experimental (observed) value of cell survival inhibition",-1.83%
same,inhibition at 10 µg/mL,"T24 cells [1]; CBC 0 + THC 10 μg/ml, read-out: Calculated (expected) value of cell survival inhibition",4.23%
same,inhibition at 10 µg/mL,"T24 cells [1]; CBC 0 + THC 10 μg/ml, read-out: Experimental (observed) value of cell survival inhibition",4.23%
same,inhibition at 12.5 µg/mL,"T24 cells [1]; CBC 0 + THC 12.5 μg/ml, read-out: Calculated (expected) value of cell survival inhibition",27%
same,inhibition at 12.5 µg/mL,"T24 cells [1]; CBC 0 + THC 12.5 μg/ml, read-out: Experimental (observed) value of cell survival inhibition",27%
same,cell migration into the scratch,T24 cells [2],had no effect on cell migration
